Measurements from article PMC6934184, “Selective DNA-PKcs inhibition extends the therapeutic index of localized radiotherapy and chemotherapy” (The Journal of Clinical Investigation, 2019).

Target: T1, TAOK1 (Homo sapiens, UniProt Q7L7X3)
T1 construct: purchased Thermo Fisher Scientific (Life Technologies) SelectScreen
Experiment: SelectScreen LanthaScreen
Assay type: binding
Conditions: read-out: % displacement
Outline: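 Percent values come from Thermo SelectScreen profiling of NU5455, combining activity and binding assays. CSF1R was run in Z'LYTE format at Km app ATP, and CAMK1 in Adapta format with ATP listed at 10.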

T1 sequence (Q7L7X3 whole entry): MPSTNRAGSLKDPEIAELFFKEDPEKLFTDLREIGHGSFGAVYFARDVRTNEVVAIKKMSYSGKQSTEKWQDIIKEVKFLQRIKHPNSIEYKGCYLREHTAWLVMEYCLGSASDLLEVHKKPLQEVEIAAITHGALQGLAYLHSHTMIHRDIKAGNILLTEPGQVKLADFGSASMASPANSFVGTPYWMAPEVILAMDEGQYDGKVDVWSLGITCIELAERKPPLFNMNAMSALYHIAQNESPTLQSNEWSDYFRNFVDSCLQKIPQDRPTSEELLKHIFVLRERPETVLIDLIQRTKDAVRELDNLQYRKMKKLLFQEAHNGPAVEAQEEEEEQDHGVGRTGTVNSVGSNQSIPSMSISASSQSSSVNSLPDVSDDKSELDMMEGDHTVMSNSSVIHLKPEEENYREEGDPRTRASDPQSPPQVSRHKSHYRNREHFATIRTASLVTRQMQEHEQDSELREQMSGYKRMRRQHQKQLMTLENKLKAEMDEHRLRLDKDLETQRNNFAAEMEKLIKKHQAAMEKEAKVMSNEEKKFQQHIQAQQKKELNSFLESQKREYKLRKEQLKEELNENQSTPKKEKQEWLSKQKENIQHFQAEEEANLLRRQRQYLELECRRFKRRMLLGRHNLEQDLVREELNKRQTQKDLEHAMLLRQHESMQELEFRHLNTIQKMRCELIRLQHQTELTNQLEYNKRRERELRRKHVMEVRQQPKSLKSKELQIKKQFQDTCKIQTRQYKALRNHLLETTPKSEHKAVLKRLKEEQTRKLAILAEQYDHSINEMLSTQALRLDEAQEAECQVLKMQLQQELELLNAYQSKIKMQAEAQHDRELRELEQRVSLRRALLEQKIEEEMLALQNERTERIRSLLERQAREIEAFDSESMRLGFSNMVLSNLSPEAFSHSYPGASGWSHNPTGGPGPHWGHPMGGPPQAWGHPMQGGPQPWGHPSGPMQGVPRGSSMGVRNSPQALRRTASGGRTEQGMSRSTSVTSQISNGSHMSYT

CN(C(=O)CN1CCOCC1)c1ccc2sc3c(-c4cccc5c(=O)cc(N6CC7CCC(C6)O7)oc45)cccc3c2c1 [NU5455] showed an inhibition at 1 µM of 3.7%.
